In article PMC2607018, “Iodine Atoms: A New Molecular Feature for the Design of Potent Transthyretin Fibrillogenesis Inhibitors” (PLoS ONE, 2009):
Like-named read-outs stand apart in the source and are kept apart here. Values belong to the compound of their own block, whether it stands above or below them.

Tests used:
TTRY78F [1] = target: T1, TTRY78F (Homo sapiens, UniProt P02766, Y98F); experiment: Tetramer dissociation in 6M urea monitored by far-UV circular dichroism; format: biochemical; settings: TTRY78F 3.6 µM, inhibitor 7.2 µM, 25 °C
Excerpt: (§1) The stabilizing effect of iodine atoms on the tetrameric form of both TTRwt and TTRY78F has been further evaluted on urea induced dissociation experiments by comparing the performance of iododiflunisal versus diflunisal. Thus, after allowing maximum stabilization of the tetrameric forms of both TTR wild type and Y78F mutant proteins by formation of TTR/inhibitor complexes of (1:2) stoichiometry, measures of circular dichroism in the far-UV of changes in the secondary structure of TTR were recorded as a function of time in 6M urea solutions. It has been assumed that the rate of tetramer dissociation is irreversibly associated to fast monomer unfolding when employing urea concentrations exceeding those that may enable monomer refolding.
(§2) It is known that the dissociation of the tetrameric form of TTRwt takes an average of 42 h and the resulting monomers quickly unfold 500.000 times faster. Therefore the rate of dissociation can be estimated by lining it to unfolding which is irreversible in 6M urea. Thus, owing that the tetramer dissociation is the rate limiting step for fibrilogenesis and assuming the kinetic stabilizing mechanism of inhibition, good inhibitors should slow tetramer dissociation.
(§3) Although slow tetramer dissociation is not detectable by far-UV CD spectroscopy, this technique is very much suitable at monitoring the much faster unfolding step.The CD spectra of TTR corresponds to a typical β-sheet reach protein with a Cotton effect centered at 210 nm and a shoulder at 217 nm. This band gradually looses intensity as protein denaturation advances, therefore meaningful changes in the β-sheet content of the protein are normally recorded in the region of 210–250 nm. Below this region (190–210 nm) other interesting structural changes are masked by the high concentrations of urea required for denaturation. Results are here presented in unfolded fraction units which are calculated from each spectra assuming than at time zero the elipticity recorded corresponds to the fully folded protein while at 200 h this parameter agrees with a totally unfolded state.
(§4) Both proteins were incubated in buffered solutions of 6M urea in the presence and absence of 1:2 ratios of protein to inhibitor and far-UV CD spectra ([…]) were intermitently recorded for a period of 200 hours. […]
(§5) Protein stock solutions of wtTTR and TTRY78F of 1 mg/ml of protein in 50 mM of sodium phosphate buffer, 1mM EDTA, pH 7.0 were also prepared from mother solutions of both proteins containing 4 mg/mL (72.7 µM) of wtTTR and 3 mg/mL (55.5 µM) of TTRY78F that were determined by spectrophotometrical methods. […] The samples were incubated over a period of 200 hours at 25 °C and far-UV CD spectra (210-250 nm) were periodically recorded in a JASCO 600 instrument. […]

TTRwt = TTRwt (Homo sapiens, UniProt P02766); experiment: as above; format: biochemical; settings: TTRwt 3.6 µM, inhibitor 7.2 µM, 25 °C
Excerpt: as §1, §2, §3, §4, §5

TTRY78F [2] = target: T1, TTRY78F; design: method as in PMID 15080795; settings: 1:2 proportion of TTRY78F/inhibitor; cited from earlier work
[3] = tested on: thyroid hormone receptor alfa; experiment: In vitro binding test to thyroid hormone receptors; settings: data not shown
Description: (§6) To gain further insight on the therapeutic potential of these iodinated TTR fibrillogenesis inhibitors, in vitro binding tests of idodiflunisal to thyroid hormone receptors alfa and beta were carried out (data not shown). […] This has been further confirmed by preclinical animal studies using a TTRV30M transgenic mice strain receiving 2.8 mg of iododiflunisal per day during 3 months. […] However, further preclinical tests are needed to validate these compounds as potential drugs for TTR related amyloidosis.

[4] = target: T2, thyroid hormone receptor beta (Homo sapiens, UniProt P10828); experiment: In vitro binding test to thyroid hormone receptors; settings: data not shown
T2 sequence (P10828 1-461): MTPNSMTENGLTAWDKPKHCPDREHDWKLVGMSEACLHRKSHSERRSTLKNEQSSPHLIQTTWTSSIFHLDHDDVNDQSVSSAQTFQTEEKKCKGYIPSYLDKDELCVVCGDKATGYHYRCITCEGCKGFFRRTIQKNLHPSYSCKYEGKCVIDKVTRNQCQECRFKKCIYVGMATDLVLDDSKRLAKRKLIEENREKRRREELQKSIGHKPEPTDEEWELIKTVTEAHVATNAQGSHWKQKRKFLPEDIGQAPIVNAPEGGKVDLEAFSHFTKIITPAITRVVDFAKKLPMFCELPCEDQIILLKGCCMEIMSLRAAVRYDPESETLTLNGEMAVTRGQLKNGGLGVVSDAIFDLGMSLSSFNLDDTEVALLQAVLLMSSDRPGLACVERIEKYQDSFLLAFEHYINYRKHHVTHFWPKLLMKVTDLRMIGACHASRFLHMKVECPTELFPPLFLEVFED
Description: as §6

[5] = tested on: TTRV30M transgenic mice strain; experiment: Preclinical animal study, 3 months; format: in vivo; settings: 2.8 mg per day during 3 months
Description: as §6

[6] = tested on: natural TTR tetramers occurring in blood plasma of control and FAP patients; design: method as in PMID 15080795; settings: cited from earlier work
TTR variant Y78F = TTR variant Y78F (Homo sapiens, UniProt P02766, Y98F); experiment: Kinetic turbidity assay of acid induced fibril formation; format: biochemical
Excerpt: Two different parameters can be derived from this kinetic test. The IC50 value is the inhibitor concentration at which the initial rate of fibril formation is half than that in the absence of inhibitor. In turn, RA (%) can be defined as the percent reduction of fibril formation rate at high inhibitor concentration relative to the rate at zero concentration of tested compound.
An in vitro turbidimetric test in a high troughput mode was used to assess the fibrillogenesis inhibition potency of the compounds of the library. The mutant protein TTRY78F was incubated with various concentrations of test compounds in 96 well microplates. After lowering the pH of the solutions to 4.2, the incubation was extended for 1.5 h while recording the absorbance at 340 nm at 1 min intervals. […] (Figure S1).
The mutant Y78F TTR protein (0.4 mg.mL^-1) was incubated for 30 min (pH 7.6, 37 °C) with 6 concentrations of test compounds ranging from 0 to 40 µM in 96-well microplates.
IC50% value is the inhibitor concentration at which the initial rate of fibril formation is half of that in the absence of inhibitor. RA(%) is the percentage of reduction in fibril formation rate induced by a given concentration of test compound relative to the rate of experiments at zero concentration of test compound.

[7] = target: T3, recombinant wild type TTR (Homo sapiens, UniProt P02766); experiment: T4 competition assay (125I-T4, gel filtration); format: binding; settings: for affinity for TTR relative to T4, in words: from T4 displacement
T3 construct: made in house; host or cells: E. coli
Excerpt: To evaluate the relative binding affinity of the compounds for TTR an already described procedure was followed.

[8] = inhibitor concentration at which the initial rate of fibril formation is half, Y78F TTR 0.4 mg/mL, pH 4.2, 37 °C, read-out: Kinetic turbidity assay IC50
[9] = fibrillogenesis inhibition assay, effect of iodination, read-out: Inhibitory efficiency, rough screening (Figure 3, measure not given)

Structure (SMILES): O=C(O)c1cc(-c2ccc(F)cc2F)ccc1O [1a, 2’,4’-difluoro-4-hydroxy-[1,1’]-biphenyl-3-carboxylic acid, reference compound]
protein denaturation (tetramer dissociation) after 200 h (TTRY78F [1]): 80%
protein denaturation (unfolding) after 200 h (TTRwt): 60%
aggregates seen by TEM (TTRY78F [2]): still allow amyloid precipitates to occur

Structure (SMILES): O=C(O)c1cc(-c2ccc(F)cc2F)cc(I)c1O [1b, 2’,4’-difluoro-4-hydroxy-5-iodo-[1,1’]-biphenyl-3-carboxylic acid]
protein denaturation (tetramer dissociation) after 200 h (TTRY78F [1]): 30%
protein denaturation (unfolding) after 200 h (TTRwt): 30%
binding constants [3]: almost negligible
binding constants [4]: almost negligible
metabolic disfunctions [5]: did not show significant metabolic disfunctions
aggregates seen by TEM (TTRY78F [2]): completely prevented
stabilizing effect on TTR tetramers [6]: more potent stabilizing effect

Structure (SMILES): O=C(O)c1ccc(-c2ccccc2)cc1 [Biphenyl carboxylic, reference compound]
IC50 (TTR variant Y78F; [9]): 49 µM

Structure (SMILES): O=C(O)c1ccccc1Nc1cccc(C(F)(F)F)c1 [Flufenamic, reference compound]
IC50 (TTR variant Y78F; [9]): 10.9 µM

Structure (SMILES): CC(C(=O)O)c1ccc(-c2ccccc2)c(F)c1 (stereo not shown) [Flurbiprofen, reference compound]
IC50 (TTR variant Y78F; [9]): > 100 µM

Structure (SMILES): O=C(O)c1ccc(Oc2ccccc2)cc1 [Phenoxybenzoic, reference compound]
IC50 (TTR variant Y78F; [9]): 29 µM

Structure (SMILES): NC(Cc1ccc(Oc2ccc(O)cc2)cc1)C(=O)O (stereo not shown) [T0, thyronine, reference compound]
IC50 (TTR variant Y78F; [8]): > 50 µM

Structure (SMILES): Oc1c(I)cc(I)cc1I [TIP, triiodophenol, reference compound]
IC50 (TTR variant Y78F; [8]): 3.2 µM

Structure (SMILES): O=C(O)c1ccccc1O [reference compound]
IC50 (TTR variant Y78F; [9]): > 100 µM

Now from value to compound:

IC50 (TTR variant Y78F; [8]): 5.7 µM
affinity for TTR relative to T4, in words [7]: higher affinity values for TTR than T4
Structure (SMILES): CCOC(=O)[C@H](C)NC(=O)c1cc(-c2ccc(F)cc2F)cc(I)c1O [11b, N-[2’,4’-difluoro-4-hydroxy-5-iodo-[1,1’]-biphenyl-3-carbonyl]-L-alanine ethyl ester]

IC50 (TTR variant Y78F; [8]): 5.8 µM
affinity for TTR relative to T4, in words [7]: higher affinity values for TTR than T4
Structure (SMILES): COC(=O)C(CC(=O)OC(C)(C)C)NC(=O)c1cc(-c2ccc(F)cc2F)cc(I)c1O [19b, N-[2’,4’-difluoro-4-hydroxy-5-iodo-[1,1’]-biphenyl-3-carbonyl]-L-aspartic α-methyl ester and β-tert-butyl ester]

IC50 (TTR variant Y78F; [8]): > 50 µM
Structure (SMILES): CC(C)(C)OC(=O)[C@H](CC(N)=O)NC(=O)c1cc(-c2ccc(F)cc2F)ccc1O [21a, N-[2’,4’-difluoro-4-hydroxy-[1,1’]-biphenyl-3-carbonyl]-L-asparagine tert-butyl ester]

IC50 (TTR variant Y78F; [8]): 9.7 µM
Structure (SMILES): CC(C)(C)OC(=O)[C@H](CC(N)=O)NC(=O)c1cc(-c2ccc(F)cc2F)cc(I)c1O [21b, N-[2’,4’-difluoro-4-hydroxy-5-iodo-[1,1’]-biphenyl-3-carbonyl]-L-asparagine tert-butyl ester]

IC50 (TTR variant Y78F; [8]): > 50 µM
Structure (SMILES): O=C(O)CCNC(=O)c1cc(-c2ccc(F)cc2F)ccc1O [22a]

fibrillogenesis inhibitory potency, in words (TTR variant Y78F): very potent inhibitor
affinity for TTR relative to T4, in words [7]: equal affinity for TTR than T4
T4 Displacement EC50(T4)/EC50(I) ([7]; wild type TTR 30 nM, 125I-T4, test compounds 0-10 µM, relative to cold T4): 0.95
Structure (SMILES): O=C(O)CCNC(=O)c1cc(-c2ccc(F)cc2F)cc(I)c1O [22b, N-[2’-,4’-difluoro-4-hydroxy-5-iodo-[1,1’]-biphenyl-3-carbonyl]-β-alanine]

IC50 (TTR variant Y78F; [8]): > 50 µM
Structure (SMILES): COC(=O)CCNC(=O)c1cc(-c2ccc(F)cc2F)ccc1O [23a, N-[2’,4’-difluoro-4-hydroxy-[1,1’]-biphenyl-3-carbonyl]-β-alanine methyl ester]
